Where two headings read alike, the source gives them in different places.
What was measured:
[1] = tested on: FaDu cell line; assay: Prodrug Activation in Hypoxic Stirred Tumour Cell Suspensions; conditions: 10 μM, 4 hours
[2] = tested on: pH2AX induction in HCT116 ATM-/- multicellular tumour spheroids; assay: Prodrug Radiation Sensitization in Multicellular Tumour Spheroids, inhibition of pH2AX induction following radiation; assay type: cell-based; conditions: Homo sapiens, HCT-116, 20 Gy
Method: Prodrug compounds were assayed to determine their potency in 3D multicellular spheroids in media maintained under 20% vs 5% oxygen. Multicellular tumour spheroids were grown to approximately 0.5 mm in diameter and irradiated with 20 Gy in combination with inhibitor test compounds to determine their potency using HCT 116 and FaDu cell lines. Experiments were carried out in 96 well plates containing 0.7 mls of MEM media containing 10% FBS and 10 mM glucose under 5% CO2 at 37° C. Following dilution of compounds 1:1000 from DMSO stocks, compounds were serially diluted from 10 μM down to 3.5 nM and 5-10 spheroids added. 96 well plates were constantly stirred to avoid spheroids settling during the course of the experiment. Endpoints were pDNA-PK (ser 2056) or pH2AX (ser 139) status in spheroid cryosections taken 1 or 2 hours following radiation and fixed immediately in formalin. Using tumour cell lines deficient in ATM improved the assay signal to noise and gH2AX readout. Using this assay prodrug activity could be compared in the more oxygenated outer spheroid layers versus less oxygenated hypoxic central cell layers.

[3] = molecular target: T1, DNA-PK phosphorylation at Serine 2056 (Homo sapiens, UniProt P78527); assay: Cellular Assay for Inhibition of DNA-PK Phosphorylation at Serine 2056 in FaDu cells (sandwich ELISA, neocarzinostatin); assay type: cell-based; conditions: pSer2056 DNA-PK, Table 3
T1 construct: FaDu cells were purchased from ATCC; host or cells: FaDu
Method: FaDu cells were purchased from ATCC and maintained in MEM alpha medium (Life Technologies, cat. no. 12561) supplemented with 10% fetal bovine serum, and 1% GlutaMAX at 37° C. supplemented with 5% CO2. 50,000 cells were seeded to each well of a 96-well cell culture plate in 50 μL of culture medium and incubated for 16-24 hours. Three-fold serially diluted compounds were prepared in DMSO. Culture media was used to prepare compound treatments to 0.3% DMSO (dimethyl sulphoxide) content. Compound treatments were added to the cells for 1 hour prior incubation, followed by the addition of neocarzinostatin in fresh culture medium to 1 μg/mL final concentration for an additional 2 hours incubation to induce DNA DSBs (double-strand breaks). DMSO controls were incubated with fresh culture medium alone for the additional two hours incubation. The cells were then lysed and frozen at −20° C. Cell lysates were thawed on wet ice and protein concentrations quantified by BCA Protein Assay (Thermo #23225). Lysis buffer was used to normalize lysates by protein content and all lysates were then investigated by sandwich ELISA by means of DNA-PK-specific antibodies (Abcam ab44815: total DNA-PK; ab124918: phosphoserine-2056 DNA-PK) in sandwich ELISA format on the MSD S600MM platform (MesoScale Discovery). % inhibition was calculated for all data points: =1−(DATA_PT−AVERAGE(DMSO controls))/(AVERAGE(NCS controls)−AVERAGE(DMSO controls)). Logarithm of the molar concentration of compound was plotted against percent inhibition to calculate IC50 values, with curve fit settings for data fit to log(inhibitor) vs. normalized response—Variable slope using curve fit software (GraphPad Prism).

[4] = 5% O2, inner layers, read-out: Prodrug 5% O2 Inner layers EC50
[5] = 5% O2, outer layers, read-out: Prodrug 5% O2 Outer layers EC50
[6] = 20% O2, outer layers, read-out: Prodrug 20% O2 Outer layers EC50

Row | SMILES | Fraction of prodrug converted to active form, Hypoxic 0.2% O2 [1] | Fraction of prodrug converted to active form, Oxic 5% O2 [1] | EC50 [2, 4] [nM] | EC50 [2, 5] [nM] | EC50 [2, 6] [nM] | IC50 [3] [nM]
1 | Cn1c(Cn2cnnc2-c2cnc3cc(N4CCOCC4)nc(OC4CCC(Nc5ncccn5)CC4)c3c2)cnc1[N+](=O)[O-] (centres unmarked) [LFA135, N-[4-[[3-[4-[(3-Methyl-2-nitro-imidazol-4-yl)methyl]-1,2,4-triazol-3-yl]-7-morpholino-1,6-naphthyridin-5-yl]oxy]cyclohexyl]pyrimidin-2-amine] | D (D is 0 to 0.02) | D (D is 0 to 0.02) | 1000 to 10000 | 1000 to 10000 | 1000 to 10000 | 
2 | COc1cccnc1N[C@H]1CC[C@@H](Oc2nc(N3CCOCC3)cc3ncc(N(Cc4cnc([N+](=O)[O-])n4C)S(C)(=O)=O)cc23)CC1 [LFA2009, N-[5-[4-[(3-methoxy-2-pyridyl)amino]cyclohexoxy]-7-morpholino-1,6-naphthyridin-3-yl]-N-[(3-methyl-2-nitro-imidazol-4-yl)methyl]methanesulfonamide] | B (B is 0.05 to 0.15) | C (C is 0.02 to 0.05) | 1000 to 10000 | 1000 to 10000 | 1000 to 10000 | 10000 to 30000
3 | Cn1c(CN(c2cnc3cc(N4CCOCC4)nc(O[C@H]4CC[C@@H](Nc5ccc(F)cn5)CC4)c3c2)S(C)(=O)=O)cnc1[N+](=O)[O-] [LFA2010, N-[5-[4-[(5-fluoro-2-pyridyl)amino]cyclohexoxy]-7-morpholino-1,6-naphthyridin-3-yl]-N-[(3-methyl-2-nitro-imidazol-4-yl)methyl]methanesulfonamide] | B (B is 0.05 to 0.15) | C (C is 0.02 to 0.05) | 10 to 500 | 500 to 1000 | 1000 to 10000 | 100 to 1000
4 | Cc1nc(N[C@H]2CC[C@@H](Oc3nc(N4CCOCC4)cc4ncc(N(Cc5cnc([N+](=O)[O-])n5C)S(C)(=O)=O)cc34)CC2)ccc1F [LFA2011, N-[5-[4-[(5-fluoro-6-methyl-2-pyridyl)amino]cyclohexoxy]-7-morpholino-1,6-naphthyridin-3-yl]-N-[(3-methyl-2-nitro-imidazol-4-yl)methyl]methanesulfonamide] | C (C is 0.02 to 0.05) | D (D is 0 to 0.02) | 1000 to 10000 | 1000 to 10000 | 1000 to 10000 | 10000 to 30000
5 | CC(Oc1cnc2cc(N3CCOCC3)nc(O[C@H]3CC[C@@H](c4cnccn4)CC3)c2c1)c1cnc([N+](=O)[O-])n1C (some centres unmarked) [LFA2041, 4-[3-[1-(3-methyl-2-nitro-imidazol-4-yl)ethoxy]-5-(4-pyrazin-2-ylcyclohexoxy)-1,6-naphthyridin-7-yl]morpholine] | A (A is 0.15 to 1) | B (B is 0.05 to 0.15) | 10 to 500 | 1000 to 10000 | 1000 to 10000 | 10000 to 30000
6 | Cn1c(COc2cnc3cc(N4CCOCC4)nc(O[C@H]4CC[C@@H](c5cnccn5)CC4)c3c2)cnc1[N+](=O)[O-] [LFA2042, 4-[3-[(3-methyl-2-nitro-imidazol-4-yl)methoxy]-5-(4-pyrazin-2-ylcyclohexoxy)-1,6-naphthyridin-7-yl]morpholine] | A (A is 0.15 to 1) | C (C is 0.02 to 0.05) | 10 to 500 | 1000 to 10000 | 1000 to 10000 | 10000 to 30000

Source: patent US20240239790A1, “7-Morpholino-1,6-Naphthyridin-5-yl Derivatives and Pharmaceutical Compositions Thereof Useful as DNA-PK Inhibitor” (adMare Therapeutics Society, priority 2021, published 2024)
